Source: patent publication US8759315B2, “Methods for rejuvenating” (Viacell, LLC, priority 2003, dated 2014)

Tests used:
[1] = system: RBC; experiment: Rejuvenation with D-ribose and phosphoenolpyruvate, DPG assay; assay type: cell-based; settings: six days at room temperature, then 15 mM D-ribose, 10 mM to 100 mM PEP or both, 37°, 30 minutes; day 0 about 2 μmol/ml (FIG. 3)
Experimental: (§1) The DPG assay was as follows: • To 2 mL Tris buffer with EDTA, was added 0.05 ml ATP 40 mM plus NADH 9.6 mM; 0.04 ml PGM (Sigma kit 665PA, Sigma, Inc. St. Louis, Mo.) and 0.1 ml RBC. The reaction mixture was allowed to equilibrate for five minutes at room temperature and the absorption at 339 nm wavelength was recorded. Next was added 0.02 ml PGM and 0.02 ml glycolate-2-phosphate. The reaction was allowed to proceed for 25 minutes and the absorption at 339 nm wavelength was recorded. The packed cell DPG equals (μmol/ml)×100 divided by the hematocrit.
The rejuvenation experiment of Example 4 was repeated adding the high energy glycolysis intermediate phosphoenolpyruvate (PEP). Samples were held at for six days at room temperature until DPG levels were barely detectable. At that point, 15 mM D-ribose, 10 mM to 100 mM PEP or both were added and the blood incubated at 37° for 30 minutes. […] Adding PEP gave some benefit, raising the DPG levels to nearly 1 μmol/ml. Ribose also raised levels to about 1 μmol/ml. The effect of ribose plus PEP was additive: levels exceeded 1.5 μmol/ml, nearly the levels on day 0.

[2] = system: Whole blood; experiment: Rejuvenation of stored whole blood, DPG assay; assay type: cell-based
Experimental: as §1
An experiment was devised to determine whether the DPG levels could be brought back to approximate initial levels, that is, whether the RBC could be rejuvenated. Whole blood with heparin as anticoagulant was held at room temperature for 6 days, at which time DPG levels were undetectable. D-ribose at 10 mM was added and the blood was incubated at 37° C. for thirty minutes. […] The incubation time will be extended to determine whether the DPG levels can be further increased.

[3] = system: RBC; experiment: Oxygen dissociation curve (P50) of stored and rejuvenated blood; assay type: cell-based; settings: six-day CPD sample rejuvenated as for Example 3A (10 mM D-ribose, 37° C., thirty minutes)
From the text: When the percent saturation of oxygen in blood is plotted against the partial pressure of oxygen (mmHg), the resulting curve is shown in FIG. 2. A shift to the right occurs when DPG is increased or pH is decreased. Consistent with the DPG experiments, the oxygen tension giving 50% saturation (P50) after six days storage in CPD was 43 mmHg. When this sample was rejuvenated as for Example 3A above, the P50 was 18.2 mmHg.

[4] = system: RBC; settings: 42 days of storage at 4° C.; D-ribose: 15mM D-ribose and 10 mM phosphate added to CPD; cited from earlier work

C=C(OP(=O)(O)O)C(=O)O [PEP, phosphoenolpyruvate]
DPG levels after rejuvenation [1]: about 1 μmol/ml

O=C[C@H](O)[C@H](O)[C@H](O)CO [D-ribose]
DPG after rejuvenation, as part of the usual initial value ([2]; whole blood with heparin held 6 days at room temperature (DPG undetectable), 10 mM D-ribose, 37° C., thirty minutes): about one-third
oxygen tension giving 50% saturation (P50) [3]: 18.2 mmHg
DPG levels after rejuvenation [1]: about 1 μmol/ml
2,3 DPG level maintained, of its initial level [4]: about 50%

OC[C@H]1O[C@@H](n2cnc3c(O)ncnc32)[C@H](O)[C@@H]1O [inosine]
effect on rejuvenation ([2]; ribose reduced to one mM or increased to 100 mM, inosine substituted for ribose): equally beneficial effects on rejuvenation
